The source of these data is EP4667458A1 (Kanaph Therapeutics Inc., priority 2023, dated 2024).

A word on the IC50: it is the concentration that gives 50% inhibition.

The target in this assay is T1, SOS1 (Homo sapiens, UniProt Q07889).
T1 construct: adding equal amounts of HIS-SOS1cat (160 nM; Cytoskeleton, US); His; purchased Cytoskeleton, US
T1 sequence (Q07889 564-1049 limits assumed): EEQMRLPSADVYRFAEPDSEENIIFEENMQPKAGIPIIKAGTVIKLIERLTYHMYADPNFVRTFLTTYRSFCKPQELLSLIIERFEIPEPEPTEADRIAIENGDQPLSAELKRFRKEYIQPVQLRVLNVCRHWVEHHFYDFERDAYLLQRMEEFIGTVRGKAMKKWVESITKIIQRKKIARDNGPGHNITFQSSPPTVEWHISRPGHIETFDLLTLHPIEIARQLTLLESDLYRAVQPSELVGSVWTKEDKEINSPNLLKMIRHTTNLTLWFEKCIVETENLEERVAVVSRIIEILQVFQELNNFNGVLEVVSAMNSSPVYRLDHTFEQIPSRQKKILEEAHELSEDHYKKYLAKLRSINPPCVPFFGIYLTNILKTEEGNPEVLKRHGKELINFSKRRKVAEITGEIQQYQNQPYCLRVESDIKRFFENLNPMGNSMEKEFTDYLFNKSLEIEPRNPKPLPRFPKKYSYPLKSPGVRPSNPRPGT
As to the kind of experiment: SOS-catalyzed nucleotide exchange assay (HTRF, SOS1-mediated GTP loading of KRAS G12D). It is filed as biochemical. The conditions noted are these: GST-KRAS G12D, HIS-SOS1cat, EDA-GTP-DY-647P1; compound 128 pM to 10 µM; read-out: SOS-catalyzed nucleotide exchange assay (IC50 range, Grade). The procedure:
SOS1 activity was measured by SOS1-mediated GTP loading quantification of KRAS^G12D. GTP-loaded KRAS^G12D was detected by HTRF (Homogeneous Time Resolved Fluorescence) using anti-GST terbium (Cisbio, France) as a donor and a fluorescence GTP analogue (EDA-GTP-DY-647P1, [DY-647P1-labeled 2'/3'-O-(2-aminoethyl-carbamoyl)guanosine-5'-triphosphate (Jena bioscience, Germany)]) as an acceptor.
Assay buffer was composed of 10 mM HEPES pH 7.4, 150 mM NaCl, 5 mM MgCl2, 1 mM DTT, 0.05% BSA Fraction V pH 7.0 (Sigma) and 0.0025% (v/v) Igepal (Sigma). KRAS^G12D working solution was prepared by adding equal amounts of GST-KRAS^G12D (100 nM) and anti-GST-terbium (2 nM; Cisbio, France) to the assay buffer and incubating on ice for 10 minutes. SOS1cat working solution was prepared by adding equal amounts of HIS-SOS1cat (160 nM; Cytoskeleton, US) and EDA-GTP-DY-647P1 (200 nM; Jena bioscience, Germany) to the assay buffer. Control solution was prepared by adding equal volumes of EDA-GTP-DY-647P1 and the assay buffer for normalization control to exclude GEF-independent GTP loading and background signals. In order to induce a reaction, 5 µL of the SOS1cat working solution or the control solution was injected into each well. 5 µL of a compound having various concentrations from 128 pM to 10 µM was added to wells containing the SOS1cat working solution and incubated at room temperature for 10 minutes to bind to SOS1.
10 µL of the KRAS^G12D solution was added to each well and incubated for 30 minutes at room temperature while shaking. HTRF was measured using a Thermo Varioskan (excitation 334 nm, emission 665 nm). The IC50 of each inhibitor was analyzed using Graphad Prism.
The SOS1 inhibitory activity of the Example compounds measured by the above method was evaluated based on the following criteria, and the results are shown in Table 29.
With `COc1ccccc1-n1nc(C(=O)N[C@H](C)c2cc(N)cc(C(F)(F)F)c2)ccc1=O` [Example 23, N-[(1R)-1-[3-amino-5-(trifluoromethyl)phenyl]ethyl]-1-(2-methoxyphenyl)-6-oxo-pyridazine-3-carboxamide], the concentration for half-maximal inhibition (IC50) was less than 1000 nM.
With `C[C@@H](NC(=O)c1ccc(=O)n(-c2cccc(S(C)(=O)=O)c2)n1)c1cccc(C(F)(F)CO)c1` [Example 58, N-[(1R)-1-[3-(1,1-difluoro-2-hydroxy-ethyl)phenyl]ethyl]-1-(3-methylsulfonylphenyl)-6-oxo-pyridazine-3-carboxamide] the figure was less than 1000 nM; with `C[C@@H](NC(=O)c1ccc(=O)n(C2CCN(S(C)(=O)=O)CC2)n1)c1cc(N)cc(C(F)(F)F)c1` [Example 120, N-[(1R)-1-[3-amino-5-(trifluoromethyl)phenyl]ethyl]-1-(1-methanesulfonylpiperidin-4-yl)-6-oxo-1,6-dihydropyridazine-3-carboxamide], 1000 to 10000 nM.
With `C[C@@H](NC(=O)c1ccc(=O)n(-c2ccncc2)c1)c1cc(N)cc(C(F)(F)F)c1` [Example 73, N-[(1R)-1-[3-amino-5-(trifluoromethyl)phenyl]ethyl]-2-oxo-2H-[1,4'-bipyridine]-5-carboxamide] the figure was less than 1000 nM.
As for `CC(=O)Nc1cccc(-n2cc(C(=O)N[C@H](C)c3cc(N)cc(C(F)(F)F)c3)ccc2=O)c1` [Example 129, N-[(1R)-1-[3-amino-5-(trifluoromethyl)phenyl]ethyl]-1-(3-acetamidophenyl)-6-oxo-1,6-dihydropyridine-3-carboxamide], the figure is less than 1000 nM; as for `C[C@@H](NC(=O)c1ccc(=O)n(-c2cccc(CO)c2)c1)c1cc(N)cc(C(F)(F)F)c1` [Example 71, N-[(1R)-1-[3-amino-5-(trifluoromethyl)phenyl]ethyl]-1-[3-(hydroxymethyl)phenyl]-6-oxo-1,6-dihydropyridine-3-carboxamide], less than 1000 nM; as for `C[C@@H](NC(=O)c1ccc(=O)n([C@@H]2CCCC[C@H]2O)n1)c1cc(N)cc(C(F)(F)F)c1` [Example 124, N-((R)-1-(3-amino-5-(trifluoromethyl)phenyl)ethyl)-1-((1R,2R)-2-hydroxycyclohexyl)-6-oxo-1,6-dihydropyridazine-3-carboxamide], 1000 to 10000 nM.
“1-(1-acetylpiperidin-4-yl)-N-[(1R)-1-[3-amino-5-(trifluoromethyl)phenyl]ethyl]-6-oxo-1,6-dihydropyridazine-3-carboxamide [Example 118]”: the IC50 was in the range of 1000 to 10000 nM.
As for `COc1ccc(-n2nc(C(=O)N[C@H](C)c3cc(N)cc(C(F)(F)F)c3)ccc2=O)cc1OC` [Example 36, N-[(1R)-1-[3-amino-5-(trifluoromethyl)phenyl]ethyl]-1-(3,4-dimethoxyphenyl)-6-oxo-pyridazine-3-carboxamide], the figure is less than 1000 nM; as for `C[C@@H](NC(=O)c1ccc(=O)n(-c2ccccc2N)n1)c1cc(N)cc(C(F)(F)F)c1` [Example 51, (R)-N-(1-(3-amino-5-(trifluoromethyl)phenyl)ethyl)-1-(2-aminophenyl)-6-oxo-1,6-dihydropyridazine-3-carboxamide], less than 1000 nM.
For the molecule `C[C@@H](NC(=O)c1ccc(=O)n(-c2cccc(S(C)(=O)=O)c2)n1)c1cc(N)cc(C(F)(F)F)c1` [Example 37, N-[(1R)-1-[3-amino-5-(trifluoromethyl)phenyl]ethyl]-1-(3-methylsulfonylphenyl)-6-oxo-pyridazine-3-carboxamide], the IC50 was less than 1000 nM.
With `C[C@@H](NC(=O)c1ccc(=O)n(C23CC(C2)C3)n1)c1cc(N)cc(C(F)(F)F)c1` [Example 70, N-[(1R)-1-[3-amino-5-(trifluoromethyl)phenyl]ethyl]-1-{bicyclo[1.1.1]pentan-1-yl}-6-oxo-1,6-dihydropyridazine-3-carboxamide] the figure was 1000 to 10000 nM.
